The text below walks through data of patent publication US20250145589A1, “PYRIDINE DERIVATIVE AND USE THEREOF” (SICHUAN HUIYU PHARMACEUTICAL CO., LTD., priority 2021, published 2025).

Like-named read-outs stand apart in the source and are kept apart here.

For assay [1], the system named is NCI-H358 cells (KRAS G12C mutant). The assay can be described thus: NCI-H358 cell proliferation inhibition (CellTiter-Glo). It counts as cell-based. The note with it: Homo sapiens, NCI-H358, 72 h; H358 cells (G12C mutation), 3 days, Table 6; read-out: NCI-H358 (IC50). The protocol:
The CellTiter-Glo®, assay was used to detect the number of viable cells, in order to evaluate the anti-proliferation efficacy of compounds. […] The compounds were serially diluted 5-fold in DMSO to obtain 8 concentrations, and then further diluted with RPMI-640 (10% FBS) cell culture medium to obtain the working solutions (5′), 20 μL of each working solution was added to the cell culture supernatant in each well, and the plate was further incubated for 3 days at 37° C. with 5% CO2. The plate was then equilibrated with CellTiter-Glo® reagent at room temperature (25° C.) for 10-30 minutes. After aspirating 50 μL of the medium, 50 μL of CellTiter-Glo® reagent was added. The cells were thoroughly mixed with the CellTiter-Glo® reagent using a microplate shaker for 2 minutes, and then incubated at room temperature for 10 minutes. The 96-well plate was placed in a multi-mode microplate reader to record the luminescence values (RLU). The inhibition rate was calculated through the following equation: [formula] Data were analyzed using GraphPad Prism for IC50 values (Note: The negative control refers to the group without inhibitor).

The target in another assay is PI3Kα (Homo sapiens (Human), UniProt P42336). The assay can be described thus: Inhibition of PI3Kα efficacy assay (ADP-Glo kinase assay). It counts as biochemical. To be noted: read-out: PI3Kα inhibitory activity (IC50). The procedure:
Inhibition of PI3Kα Efficacy assay The ADP-Glo™ kinase assay was used to assess the inhibition of PI3Kα with our compounds. The utilized proteins and assay reagents were obtained from the ADP-Glo™ Kinase Assay Kit (Promega). Initially, a 2 mM stock solution of the test compound (dissolved in DMSO) was serially diluted in five-fold concentrations using DMSO to obtain eight working solutions 1 (200′). […] Subsequently, 2 μL of 2.5×PI and ATP solution mixture were added to each well, mixed, and incubated at RT for 60 minutes. Then, 5 μL of ADP-Glo (containing 10 mM MgCl2) reagent was added to each well, mixed, and incubated at RT for 40 minutes. Finally, 10 μL of the Kinase Detection Reagent was added to each well, mixed, and incubated at RT for 40 minutes. […] Data were analyzed using GraphPad Prism with log(inhibitor) vs. response—Variable Slope(four parameters) fitting calculations for […]. (Note: The negative control refers to the group without inhibitor, and the blank control refers to the group without enzyme.) The data were presented in Tables 1 to 4.

PI3Kα, sequence (P42336 whole entry): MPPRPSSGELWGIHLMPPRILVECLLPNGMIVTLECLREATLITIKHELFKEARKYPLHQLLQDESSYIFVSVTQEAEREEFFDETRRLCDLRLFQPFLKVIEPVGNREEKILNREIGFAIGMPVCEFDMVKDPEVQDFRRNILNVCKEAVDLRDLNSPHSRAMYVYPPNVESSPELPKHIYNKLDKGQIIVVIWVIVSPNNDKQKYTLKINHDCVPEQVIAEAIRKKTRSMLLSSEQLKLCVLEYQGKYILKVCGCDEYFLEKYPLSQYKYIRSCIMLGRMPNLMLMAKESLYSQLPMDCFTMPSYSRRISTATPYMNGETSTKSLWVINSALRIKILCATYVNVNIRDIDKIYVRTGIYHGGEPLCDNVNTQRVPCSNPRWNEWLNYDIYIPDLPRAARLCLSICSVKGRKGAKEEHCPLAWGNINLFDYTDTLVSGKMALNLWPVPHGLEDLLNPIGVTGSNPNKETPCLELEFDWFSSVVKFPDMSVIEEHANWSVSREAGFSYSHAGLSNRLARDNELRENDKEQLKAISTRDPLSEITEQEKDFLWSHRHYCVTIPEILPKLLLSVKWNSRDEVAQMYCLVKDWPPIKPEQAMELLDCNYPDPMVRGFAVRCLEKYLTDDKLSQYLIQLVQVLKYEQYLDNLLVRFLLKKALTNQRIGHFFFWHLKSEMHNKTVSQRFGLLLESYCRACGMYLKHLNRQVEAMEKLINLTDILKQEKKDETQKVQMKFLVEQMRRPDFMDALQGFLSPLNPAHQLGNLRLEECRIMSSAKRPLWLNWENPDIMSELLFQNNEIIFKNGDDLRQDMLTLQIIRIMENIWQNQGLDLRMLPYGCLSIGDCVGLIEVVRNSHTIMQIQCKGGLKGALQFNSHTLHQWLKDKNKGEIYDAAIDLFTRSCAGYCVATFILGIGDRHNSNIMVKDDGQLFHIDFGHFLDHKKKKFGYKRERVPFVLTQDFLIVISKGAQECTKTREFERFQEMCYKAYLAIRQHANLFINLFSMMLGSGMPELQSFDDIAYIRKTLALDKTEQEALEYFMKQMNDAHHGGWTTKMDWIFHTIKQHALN
PI3Kα, sequence (P27986 whole entry partner): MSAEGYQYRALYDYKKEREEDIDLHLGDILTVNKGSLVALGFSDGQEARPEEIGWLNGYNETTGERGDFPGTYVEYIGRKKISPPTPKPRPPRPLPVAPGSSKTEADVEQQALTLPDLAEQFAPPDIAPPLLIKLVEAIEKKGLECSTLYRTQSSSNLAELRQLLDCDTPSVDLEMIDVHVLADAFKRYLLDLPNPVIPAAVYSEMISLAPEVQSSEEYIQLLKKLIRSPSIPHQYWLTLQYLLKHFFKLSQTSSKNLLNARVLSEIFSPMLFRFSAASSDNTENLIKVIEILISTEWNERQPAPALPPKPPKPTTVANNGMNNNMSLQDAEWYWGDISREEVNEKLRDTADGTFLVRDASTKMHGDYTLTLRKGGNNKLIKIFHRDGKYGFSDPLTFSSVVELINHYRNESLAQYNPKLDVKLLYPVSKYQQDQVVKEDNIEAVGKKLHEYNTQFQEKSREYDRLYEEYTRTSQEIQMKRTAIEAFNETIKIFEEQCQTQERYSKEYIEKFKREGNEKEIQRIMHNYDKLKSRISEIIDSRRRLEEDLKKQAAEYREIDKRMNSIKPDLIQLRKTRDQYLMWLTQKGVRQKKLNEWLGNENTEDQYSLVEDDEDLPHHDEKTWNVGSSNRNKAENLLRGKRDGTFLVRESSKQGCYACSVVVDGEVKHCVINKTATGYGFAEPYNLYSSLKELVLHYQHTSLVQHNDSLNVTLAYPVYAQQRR

Turning to `C=C(F)C(=O)N1C2CCC1CN(c1ncnc3ccc(-c4cnc(OC)c(NS(=O)(=O)c5c(F)cc(F)cc5F)c4)cc13)C2` [Example 156, 2,4,6-trifluoro-N-(5-(4-(8-(2-fluoroacryloyl)-3,8-diazabicyclo[3.2.1]octan-3-yl)quinazolin-6-yl)-2-methoxypyridin-3-yl)benzenesulfonamide], the IC50 in assay [1] was found to be 29.7 nM; on PI3Kα (Table 4) it was 0.5 nM.
In the same order, the values of `COc1ncc(-c2ccc3ncnc(N4CC5CN(C(=O)/C=C/C(C)=O)CC5C4)c3c2)cc1NS(=O)(=O)c1ccc(F)cc1F` (centres unmarked) [Example 157, (E)-2,4-difluoro-N-(2-methoxy-5-(4-(5-(4-oxopent-2-enoyl)hexahydropyrrolo[3,4-c]pyrrol-2(1H)-yl)quinazolin-6-yl)pyridin-3-yl)benzenesulfonamide] are 128 nM and 1.3 nM.
As to `C=C(F)C(=O)N1CCN(c2ncnc3ccc(-c4cnc(OC)c(NS(=O)(=O)c5c(F)cc(F)cc5F)c4)cc23)CC1` [Example 98, 2,4,6-trifluoro-N-(5-(4-(4-(2-fluoroacryloyl)piperazin-1-yl)quinazolin-6-yl)-2-methoxypyridin-3-yl)benzenesulfonamide], the IC50 in assay [1] was 8.5 nM; at PI3Kα (Table 2), 9.8 nM.
Regarding `C=CC(=O)N1CCN(c2nc(OC[C@@H]3CCCN3C)nc3ccc(-c4cnc(OC)c(NS(=O)(=O)c5ccc(F)cc5F)c4)cc23)C[C@@H]1CC#N` [Example 5, N-(5-(4-((S)-4-acryloyl-3-(cyanomethyl)piperazin-1-yl)-2-(((S)-1-methylpyrrolidin-2-yl)methoxy)quinazolin-6-yl)-2-methoxypyridin-3-yl)-2,4-difluorobenzenesulfonamide], the IC50 in assay [1] turned out to be 5390 nM.
On to `COc1ncc(-c2ccc3ncnc(NC4CCN(C(=O)/C=C/C(C)=O)C4)c3c2)cc1NS(=O)(=O)c1ccc(F)cc1F` (centres unmarked) [Example 148, (E)-2,4-difluoro-N-(2-methoxy-5-(4-((1-(4-oxopent-2-enoyl)pyrrolidin-3-yl)amino)quinazolin-6-yl)pyridin-3-yl)benzenesulfonamide], for which the IC50 in assay [1] was found to be 638 nM; at PI3Kα (Table 4), 9.2 nM.
Regarding `COc1ncc(-c2ccc3ncnc(N4CCN(C(=O)/C=C/C(C)=O)CC4)c3c2)cc1NS(=O)(=O)c1ccc(C(=O)O)cc1F` [Example 209, (E)-3-fluoro-4-(N-(2-methoxy-5-(4-(4-(4-oxopent-2-enoyl)piperazin-1-yl)quinazolin-6-yl)pyridin-3-yl)sulfamoyl)benzoic acid], the IC50 on PI3Kα (Table 4) was 0.57 nM.
On to `COc1ncc(-c2ccc3ncnc(N4CC5CCC(C4)N5C(=O)/C=C/C(C)=O)c3c2)cc1NS(=O)(=O)c1ccc(F)cc1` [Example 149, 4-fluoro-N-(2-methoxy-5-(4-(8-((E)-4-oxopent-2-enoyl)-3,8-diazabicyclo[3.2.1]octan-3-yl)quinazolin-6-yl)pyridin-3-yl)benzenesulfonamide], for which the IC50 in assay [1] stood at 90.7 nM; on PI3Kα (Table 4), 3.3 nM.
In the same order, the values of `COc1ncc(-c2ccc3ncnc(N4CC5CC(C4)N5C(=O)/C=C/C(C)=O)c3c2)cc1NS(=O)(=O)c1ccc(F)cc1F` [Example 142, (E)-2,4-difluoro-N-(2-methoxy-5-(4-(6-(4-oxopent-2-enoyl)-3,6-diazabicyclo[3.1.1]heptan-3-yl)quinazolin-6-yl)pyridin-3-yl)benzenesulfonamide] are 351 nM and 0.57 nM.
Regarding `COc1c(F)cc(-c2ccc3ncnc(N4CCN(C(=O)/C=C/C(C)=O)CC4)c3c2)cc1NS(=O)(=O)c1ccc(F)cn1` [Example 121, (E)-5-fluoro-N-(3-fluoro-2-methoxy-5-(4-(4-(4-oxopent-2-enoyl)piperazin-1-yl)quinazolin-6-yl)phenyl)pyridine-2-sulfonamide], at PI3Kα (Table 2), the IC50 stood at 111 nM.
In the case of `CC(=O)/C=C/C(=O)N1CC2(CCN(c3ncnc4ccc(-c5cnc(Cl)c(NS(=O)(=O)c6c(F)cccc6F)c5)cc34)C2)C1` [Example 86, (E)-N-(2-chloro-5-(4-(2-(4-oxopent-2-enoyl)-2,6-diazaspiro[3.4]octan-6-yl)quinazolin-6-yl)pyridin-3-yl)-2,6-difluorobenzenesulfonamide], the IC50 in assay [1] is 271 nM; at PI3Kα (Table 2), 0.31 nM.
As for `COc1ncc(-c2ccc3ncnc(N4CCC5(CN(C(=O)/C=C/C(C)=O)C5)C4)c3c2)cc1N(C)S(=O)(=O)c1ccc(F)cc1F` [Example 81, (E)-2,4-difluoro-N-(2-methoxy-5-(4-(2-(4-oxopent-2-enoyl)-2,6-diazaspiro[3.4]octan-6-yl)quinazolin-6-yl)pyridin-3-yl)-N-methylbenzenesulfonamide], in assay [1], the IC50 was 1090 nM.
Regarding `COc1ncc(-c2ccc3ncnc(N4CCN(C(=O)/C=C/C(C)=O)C[C@@H]4C)c3c2)cc1NS(=O)(=O)c1c(F)cncc1F` [Example 164, (S,E)-3,5-difluoro-N-(2-methoxy-5-(4-(2-methyl-4-(4-oxopent-2-enoyl)piperazin-1-yl)quinazolin-6-yl)pyridin-3-yl)pyridine-4-sulfonamide], the figures for the IC50 (in assay [1]; at PI3Kα (Table 4)) were 156 nM and 2.8 nM, respectively.
Consider `[2H]C([2H])([2H])n1cc(-c2ccc3ncnc(N4CCN(C(=O)/C=C/C(C)=O)CC4)c3c2)cc(NS(=O)(=O)c2ccc(F)cc2F)c1=O` [Example 244, (E)-2,4-difluoro-N-(1-(methyl-d3)-2-oxo-5-(4-(4-(4-oxopent-2-enoyl)piperazin-1-yl)quinazolin-6-yl)-1,2-dihydropyridin-3-yl)benzenesulfonamide], for which the IC50 at PI3Kα (Table 4) is 270 nM.
In the case of `COc1ncc(-c2ccc3ncnc(N4CCN(C(=O)/C=C/CN(C)C)CC4)c3c2)cc1NS(=O)(=O)c1ccc(F)cc1F` [Example 11, (E)-N-(5-(4-(4-(4-(dimethylamino)but-2-enoyl)piperazin-1-yl)quinazolin-6-yl)-2-methoxypyridin-3-yl)-2,4-difluorobenzenesulfonamide], the IC50 in assay [1] was 102 nM; at PI3Kα (Table 1) it was 0.64 nM.
As to `C=CC(=O)N1CCN(c2ncnc3ccc(-c4cnc(OC)c(NS(=O)(=O)c5c(F)cccc5F)c4)cc23)C[C@@H]1CC#N` [Example 117, (S)-N-(5-(4-(4-acryloyl-3-(cyanomethyl)piperazin-1-yl)quinazolin-6-yl)-2-methoxypyridin-3-yl)-2,6-difluorobenzenesulfonamide], the IC50 in assay [1] is 37 nM; at PI3Kα (Table 2) it was 1.5 nM.
Take `C=C(F)C(=O)N1CCN(c2ncnc3ccc(-c4cnc(OC)c(NS(=O)(=O)c5c(F)cccc5F)c4)cc23)C[C@@H]1CC#N` [Example 115, (S)-N-(5-(4-(3-(cyanomethyl)-4-(2-fluoroacryloyl)piperazin-1-yl)quinazolin-6-yl)-2-methoxypyridin-3-yl)-2,6-difluorobenzenesulfonamide]: the IC50 stood at 46.5 nM in assay [1] and 1.9 nM on PI3Kα (Table 2).
In the case of `CCCC(=O)/C=C/C(=O)N1CCN(c2ncnc3ccc(-c4cnc(OC)c(N(C)S(=O)(=O)c5ccc(F)cc5F)c4)cc23)CC1` [Example 80, (E)-2,4-difluoro-N-(2-methoxy-5-(4-(4-(4-oxohept-2-enoyl)piperazin-1-yl)quinazolin-6-yl)pyridin-3-yl)-N-methylbenzenesulfonamide], the IC50 in assay [1] was 784 nM.
On to `CC(=O)/C=C/C(=O)N1CCN(c2ncnc3ccc(-c4cnc(CO)c(NS(=O)(=O)c5ccc(F)cc5F)c4)cc23)CC1` [Example 183, (E)-2,4-difluoro-N-(2-(hydroxy-methyl)-5-(4-(4-(4-oxopent-2-enoyl)piperazin-1-yl)quinazolin-6-yl)pyridin-3-yl)benzene-sulfonamide], for which the IC50 at PI3Kα (Table 4) worked out at 5.3 nM.
Turning to `COc1ncc(-c2ccc3ncnc(N4CCN(C(=O)c5cccc(O)c5)CC4)c3c2)cc1NS(=O)(=O)c1ccc(F)cc1F` [Example 69, 2,4-difluoro-N-(5-(4-(4-(3-hydroxy-benzoyl)piperazin-1-yl)quinazolin-6-yl)-2-methoxy-pyridin-3-yl) benzene-sulfonamide], the IC50 in assay [1] is 60.7 nM.
For the compound `C=C(F)C(=O)N1C[C@H](C)N(c2ncnc3ccc(-c4cnc(OC)c(NS(=O)(=O)c5c(F)cccc5F)c4)cc23)C[C@H]1C` [Example 52, 2,6-difluoro-N-(5-(4-((2S,5R)-4-(2-fluoroacryloyl)-2.5-dimethylpiperazin-1-yl)quinazolin-6-yl)-2-methoxypyridin-3-yl) benzenesulfonamide], on PI3Kα (Table 2), the IC50 was 9.1 nM.
Take `C=CC(=O)N1CCN(c2nc(C)nc3ccc(-c4cnc(OC)c(NS(=O)(=O)c5ccc(F)cc5F)c4)cc23)CC1` [Example 29, N-(5-(4-(4-acryloylpiperazin-1-yl)-2-methylquinazolin-6-yl)-2-methoxypyridin-3-yl)-2,4-difluorobenzenesulfonamide]: on PI3Kα (Table 1), the IC50 was determined as 41.3 nM.
